Target: T1, human CRTH2 receptor (Homo sapiens, UniProt Q9Y5Y4)
T1 construct: host or cells: CHO-K1 (CHO-K1-hCRTH2 cells); membranes prepared in house from the purchased cell line
T1 sequence (Q9Y5Y4 1-395): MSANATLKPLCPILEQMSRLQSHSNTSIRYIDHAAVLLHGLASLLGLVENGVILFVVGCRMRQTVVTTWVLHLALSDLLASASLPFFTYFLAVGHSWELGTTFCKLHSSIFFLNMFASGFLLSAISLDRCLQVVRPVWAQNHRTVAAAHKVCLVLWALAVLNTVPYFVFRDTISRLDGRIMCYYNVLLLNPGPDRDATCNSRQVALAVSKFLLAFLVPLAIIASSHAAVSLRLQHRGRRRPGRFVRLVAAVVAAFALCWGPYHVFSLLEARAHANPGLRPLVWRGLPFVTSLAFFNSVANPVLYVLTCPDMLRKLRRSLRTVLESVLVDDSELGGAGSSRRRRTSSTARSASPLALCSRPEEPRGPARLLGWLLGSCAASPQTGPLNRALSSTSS
Assay: Human CRTH2 receptor membrane radioligand binding assay (SPA, [3H]-PGD2)
Conditions: displacement of [3H]-PGD2 (1 nM) from CHO-K1-hCRTH2 cell membranes, 3 h room temperature
Experimental: Preparation of Human CRTH2 Receptor Membranes and Radioligand Binding Assay
The binding of CRTH2 antagonists is determined using membranes prepared from Chinese hamster ovary cells (CHO-K1 cells) transfected with the human CRTH2 receptor (CHO-K1-hCRTH2 cells, Perkin Elmer, Cat No ES-561-C). To produce cell membranes the CHO-K1-hCRTH2 cells are cultured in suspension in CHO SFMII medium supplemented with 400 μg/ml G418. The cells are harvested by centrifugation at 300 g for 10 min at room temperature. The cell pellet is resuspended in Phosphate Buffer Saline (PBS) including a protease inhibitor mix (Complete, Roche) and adjusted to a concentration of 10E7 cells/ml. The CHO-K1-hCRTH2 cells are disrupted by nitrogen […] to obtain the membrane preparation. Cell debris is removed by centrifugation (500 g at 4° C., 30 min) and the supernatant is transferred into fresh tubes followed by a second centrifugation at 40000 g for 1 h at 4° C. to sediment the membranes. The membranes are suspended in SPA incubation buffer (50 mM Tris HCl, 10 mM MgCl2, 150 mM NaCl, 1 mM EDTA, pH 7.4) without bovine serum albumin, homogenized by passing through a single use needle (Terumo, 23G×1″), and stored in aliquots at −80° C.
The CRTH2 receptor binding assay is performed in a scintillation proximity assay (SPA) format with the radioligand [^3H]-PGD2 (Perkin Elmer, NET616000MC). CHO-K1-hCRTH2 cell membranes are again homogenized by passing through a single use needle (Terumo, 23G×1″) and diluted in SPA incubation buffer in suitable concentrations (0.5-10 μg protein/well). The SPA assay is set up in 96 well microtiter plates (Perkin Elmer, CatNo. 6005040) in SPA incubation buffer with a final volume of 200 μl per well and final concentration of 50 mM Tris-HCl, 10 mM MgCl2, 150 mM NaCl, 1 mM EDTA pH 7.4, 0.1% bovine serum albumin). The SPA assay mixture contains 60 μl of the membrane suspension, 80 μl of Wheat Germ Agglutinin coated PVT beads (GE Healthcare, RPNQ-0001, 0.3 mg/well), 40 μl of [3H]-PGD2 diluted in SPA buffer to a final concentration of 1 nM (50 000 dpm) and 20 μl of the test compound (dissolved in dimethylsulfoxid). The SPA assay mixture is incubated for 3 h at room temperature. Bound radioactivity is determined with a scintillation counter (Micro Beta Trilux, Wallac).
The binding of [^3H]-PGD2 to CHO-K1-hCRTH2 cell membranes is determined in the absence (total binding, Bo) and presence (non-specific binding, NSB) of unlabelled PGD2 (1 μM, Cayman Chemical, Cat No 12010) or a reference CRTH2 antagonist (10 μM CAY10471, Cayman Chemical, Cat No 10006735).
Determination of the affinity of a test compound is calculated by subtraction of the non-specific binding (NSB) from the total binding (Bo) or the binding in the presence of the test compound (B) at a given compound concentration. […] The Bo−NSB value is set to 0% inhibition.

SMILES | Ki
CCc1nn(Cc2ccc(NC(=O)c3ccc(Cl)cc3Br)cc2)c(CC)c1CC(=O)O [Example 2.24] | 2.8 nM
CCc1nn(Cc2ccc(NC(=O)c3cccc(C)c3Br)cc2)c(CC)c1CC(=O)O [Example 2.25] | 46.6 nM
CCc1nn(Cc2ccc(NC(=O)c3ccc4ccccc4c3Br)cc2)c(CC)c1CC(=O)O [Example 2.26] | 3.6 nM
CCCc1c(C)cccc1C(=O)Nc1ccc(Cn2nc(CC)c(CC(=O)O)c2CC)cc1 [Example 2.27] | 4.3 nM
CCc1nn(Cc2ccc(NC(=O)c3cccc(C)c3CC(C)C)cc2)c(CC)c1CC(=O)O [Example 2.28] | 17.1 nM
CCc1nn(Cc2ccc(NC(=O)c3ccccc3C3CCCCC3)cc2)c(CC)c1CC(=O)O [Example 2.29] | 6.3 nM
CCc1nn(Cc2ccc(NC(=O)C(C)(C)C)cc2)c(CC)c1CC(=O)O [Example 2.30] | 5.8 nM
CCc1nn(Cc2ccc(NC(=O)C3CCC3)cc2)c(CC)c1CC(=O)O [Example 2.31] | 5 nM
CCc1nn(Cc2ccc(NC(=O)C3CCCC3)cc2)c(CC)c1CC(=O)O [Example 2.32] | 2.6 nM
CCc1nn(Cc2ccc(NC(=O)C3[C@H]4C[C@@H]5C[C@@H](C[C@H]3C5)C4)cc2)c(CC)c1CC(=O)O (stereo partly shown) [Example 2.33] | 0.8 nM
CCc1nn(Cc2ccc(NC(=O)C(C)C)cc2)c(CC)c1CC(=O)O [Example 2.34] | 4.3 nM
CCc1nn(Cc2ccc(NC(=O)c3ccccc3C3CC3)cc2)c(CC)c1CC(=O)O [Example 2.35] | 11.6 nM
O=C(O)Cc1c(-c2ccccc2)nn(Cc2ccc(NC(=O)c3ccc(Cl)cc3)cc2)c1-c1ccccc1 [Example 2.43] | 17.4 nM
O=C(O)Cc1c(-c2ccccc2)nn(Cc2ccc(NC(=O)c3ccc4ccccc4c3)cc2)c1-c1ccccc1 [Example 2.44] | 10.2 nM
O=C(O)Cc1c(-c2ccccc2)nn(Cc2ccc(NC(=O)c3ccc(C(F)(F)F)cc3)cc2)c1-c1ccccc1 [Example 2.45] | 8.9 nM
CCc1c(CC(=O)O)c(C2CC2)nn1Cc1ccc(NC(=O)c2ccc(Cl)cc2C)cc1 [Example 2.46] | 0.6 nM
CCc1c(CC(=O)O)c(C2CC2)nn1Cc1ccc(NC(=O)c2ccc(C(F)(F)F)cc2)cc1 [Example 2.47] | 0.1 nM
CCc1nn(Cc2ccc(NC(=O)c3cccc4ccccc34)cc2)c(C2CC2)c1CC(=O)O [Example 2.48] | 1.8 nM
CCc1nn(Cc2ccc(NC(=O)c3ccc(Cl)cc3C)cc2)c(C2CC2)c1CC(=O)O [Example 2.49] | 0.6 nM
CCc1nn(Cc2ccc(NC(=O)c3ccc(C(F)(F)F)cc3)cc2)c(C2CC2)c1CC(=O)O [Example 2.50] | 0.1 nM
CCc1c(CC(=O)O)c(C2CC2)nn1Cc1ccc(NC(=O)c2cccc3ccccc23)cc1 [Example 2.51] | 3.5 nM
CCc1c(CC(=O)O)c(C)nn1Cc1ccc(NC(=O)c2ccc(C(F)(F)F)cc2)cc1 [Example 2.52] | 0.5 nM

SMILES | Ki
CCc1nn(Cc2ccc(NC(=O)c3ccc(C(F)(F)F)cc3)cc2)c(C)c1CC(=O)O [Example 2.53] | 0.2 nM
Cc1c(CC(=O)O)cnn1Cc1ccc(NC(=O)c2ccc3ccccc3c2)cc1 [Example 2.55] | 21.6 nM
Cc1c(CC(=O)O)cnn1Cc1ccc(NC(=O)c2ccc(Cl)c(Cl)c2)cc1 [Example 2.56] | 27.8 nM
Cc1nn(Cc2ccc(NC(=O)c3ccc4ccccc4c3)cc2)cc1CC(=O)O [Example 2.57] | 19.3 nM
Cc1c(CC(=O)O)cnn1Cc1ccc(NC(=O)c2ccc3ccccc3c2)cc1 [Example 2.58] | 24.6 nM
CCc1c(CC(=O)O)cnn1Cc1ccc(NC(=O)c2ccc3ccccc3c2)cc1 [Example 2.59] | 17.4 nM
COc1c(CC(=O)O)c(C)nn1Cc1ccc(NC(=O)c2ccc3ccccc3c2)cc1 [Example 2.60] | 4.2 nM
Cc1nn(Cc2ccc(NC(=O)OCc3ccccc3)cc2)c(C)c1CC(=O)O [Example 3.1] | 3.8 nM
Cc1nn(Cc2ccc(NC(=O)OCc3ccccc3)cc2)c(C)c1CCC(=O)O [Example 3.2] | 786 nM
CCc1nn(Cc2ccc(NC(=O)OCc3ccccc3)cc2)c(CC)c1CC(=O)O [Example 3.3] | 0.3 nM
Cc1nn(Cc2ccc(NC(=O)OCc3ccc(Cl)c(Cl)c3)cc2)c(C)c1CC(=O)O [Example 3.4] | 0.5 nM
Cc1nn(Cc2ccc(NC(=O)OCc3ccccc3Cl)cc2)c(C)c1CC(=O)O [Example 3.5] | 16.8 nM
Cc1nn(Cc2ccc(NC(=O)OCc3ccccc3Br)cc2)c(C)c1CC(=O)O [Example 3.6] | 14.9 nM
Cc1nn(Cc2ccc(NC(=O)OCc3ccc4ccccc4c3)cc2)c(C)c1CC(=O)O [Example 3.7] | 0.6 nM
Cc1nn(Cc2ccc(NC(=O)OC(C)(C)C)cc2)c(C)c1CC(=O)O [Example 3.8] | 28.6 nM
CCc1nn(Cc2ccc(NC(=O)OCc3ccc(Cl)c(Cl)c3)cc2)c(CC)c1CC(=O)O [Example 3.9] | 0.1 nM
CCc1nn(Cc2ccc(NC(=O)OCc3ccccc3Cl)cc2)c(CC)c1CC(=O)O [Example 3.10] | 5.2 nM
CCc1nn(Cc2ccc(NC(=O)OCc3ccccc3Br)cc2)c(CC)c1CC(=O)O [Example 3.11] | 3.5 nM
CCc1nn(Cc2ccc(NC(=O)OCc3ccc4ccccc4c3)cc2)c(CC)c1CC(=O)O [Example 3.12] | 0.1 nM
Cc1nn(Cc2ccc(NC(=O)OCc3ccccc3)cc2Cl)c(C)c1CC(=O)O [Example 3.13] | 4.7 nM
Cc1nn(Cc2ccc(NC(=O)OCc3ccccc3)cc2F)c(C)c1CC(=O)O [Example 3.14] | 8.9 nM

Now from value to molecule:

Ki | SMILES
16.8 nM | Cc1nn(Cc2ccc(NC(=O)NCc3ccccc3)cc2)c(C)c1CC(=O)O [Example 4.1]
43.9 nM | Cc1nn(Cc2ccc(NS(=O)(=O)c3ccccc3)cc2)c(C)c1CC(=O)O [Example 5.1]
33.7 nM | Cc1nn(Cc2ccc(NS(=O)(=O)c3ccc(Cl)cc3)cc2)c(C)c1CC(=O)O [Example 5.2]
30.6 nM | Cc1nn(Cc2ccc(NS(=O)(=O)c3ccc(Cl)c(Cl)c3)cc2)c(C)c1CC(=O)O [Example 5.3]
230 nM | Cc1nn(Cc2ccc(NS(=O)(=O)c3ccc(C(F)(F)F)cc3)cc2)c(C)c1CC(=O)O [Example 5.4]
438 nM | Cc1nn(Cc2ccc(NCc3ccc(Cl)cc3)cc2)c(C)c1CC(=O)O [Example 6.1]
311 nM | Cc1nn(Cc2ccc(NCc3ccccc3)cc2)c(C)c1CC(=O)O [Example 6.2]
261 nM | Cc1nn(Cc2ccc(NCc3ccc(C(F)(F)F)cc3)cc2)c(C)c1CC(=O)O [Example 6.3]
407 nM | Cc1cc(Cn2nc(C)c(CC(=O)O)c2C)ccc1NC(=O)c1ccccc1 [Example 7.1]
162 nM | Cc1cc(Cn2nc(C)c(CC(=O)O)c2C)ccc1NC(=O)c1ccc(Cl)cc1 [Example 7.2]
13.5 nM | Cc1cc(Cn2nc(C)c(CC(=O)O)c2C)ccc1NC(=O)c1ccc(C(F)(F)F)cc1 [Example 7.3]
2.2 nM | Cc1cc(Cn2nc(C)c(CC(=O)O)c2C)ccc1NC(=O)c1ccc(Cl)c(Cl)c1 [Example 7.4]
0.3 nM | Cc1cc(NC(=O)c2ccc3ccccc3c2)ccc1Cn1nc(C)c(CC(=O)O)c1C [Example 7.5]
1.2 nM | Cc1nn(Cc2ccc(NC(=O)c3ccc(Cl)cc3)cc2Cl)c(C)c1CC(=O)O [Example 7.6]
3.4 nM | Cc1cc(Cl)ccc1C(=O)Nc1ccc(Cn2nc(C)c(CC(=O)O)c2C)c(Cl)c1 [Example 7.7]
